# Laboratory results: patent US7449498B2, “Composite materials for bone defect filling and bone replacement” (Yesbio Co., Ltd., priority 2005, dated 2008)
# Assay: Measurement of exothermic temperature during polymerization
# Assay type: physicochemical
# Conditions: FIG. 3
# Protocol: The composite material was mixed for 30 seconds and injected to a mold having a size in 5 mm of height and 3 mm of radius. Then, the temperature changes was measured in 3 samples per each group by inserting a thermocouple and read with a thermocouple reader (Yocogawa, Japan).
compound,measurement,value
"C=C(C#N)C(=O)OCCCC [BCA, n-butyl-2-cyanoacrylate]","temperature changes during polymerizing, in words",excessively exothermic
